Test results from paper PMC9967584 (2023).

System: Cocaine-targeting aptamer (DNA, aptamer) AGACAAGGAAAATCCTTCAATGAAGTGGGTCG
Experiment: square wave voltammetry, aptamer on gold microelectrode
Conditions: PBS; MCH-passivated; non-coated and PSB-coated sensors same calibration, modified Langmuir fit, constant not given

binding: yes
Compound: COC(=O)[C@H]1[C@@H](OC(=O)c2ccccc2)C[C@@H]2CC[C@H]1N2C
